From paper PMC12035797, “Peptidomimetics Activating the Proteasome: A New Perspective for Parkinson’s Treatment” (Journal of Medicinal Chemistry, 2025)

Tests used:
[1] = tested on: human 20S proteasome (α-synuclein substrate); test: α-Synuclein degradation by h20S (SDS-PAGE); format: biochemical; settings: 10 μM modulator, 37 °C, 1.5 h; h20S alone = 100%
Protocol: The effectiveness of the compounds has also been examined by using proteins as substrates. By means of SDS-PAGE electrophoresis, we checked the extent to which model proteins were digested by the 20S proteasome alone and after its stimulation by 10 μM modulators. […] After incubation with the enzyme in the presence of each modulator, less than 40% of synuclein remained. […] The experiment was performed as it was described.[36] Briefly, α-synuclein (rPeptide, […], USA) and Tau-441 (Novus Biologicals, Centennial, CO, USA) were dissolved in 20 mM HEPES buffer (pH 7.4) and mixed with a human 20S proteasome. Samples were incubated at 37 °C for 1.5 h, after which the reaction was terminated by adding 4× Laemmli buffer. The levels of undigested proteins were evaluated by SDS-PAGE. The band intensities of proteins incubated with […] in the presence of a modulator were compared to those of proteins incubated with the enzyme alone, which were set as 100%. Three independent experiments were performed for each protein. The results are presented as the means ± SD. One-way ANOVA with Tukey's post-hoc test was used to determine statistical significance.

[2] = tested on: hippocampal neurons containing Lewy body-like pS129-αsyn aggregates; test: pS129-α-synuclein aggregates in PFF-treated hippocampal neurons; format: cell-based, mouse; settings: 7 days after PFFs
Text: Encouraged by the results received, we tested the ability of the modulator-CPP constructs to increase α-synuclein degradation in a cell model using primary mouse neuronal cells. The presence of Lewy-like neurites and Lewy-like bodies containing aggregated α-synuclein with phosphorylated serine 129 (pS129-αsyn) is a characteristic feature of the brains of people with Parkinson’s disease. To mimic these aggregations, we introduced a solution of preformed fibrils (PFFs) to the media of neuronal cells, which led to the induction of α-synuclein phosphorylation and its aggregation in neurons isolated from mouse embryos. PFFs are purified, prion-like fibrils of α-synuclein that are produced by expressing a recombinant monomeric protein in bacteria. Seven days after PFFs are introduced to the cells, large aggregates are visible in the cell soma, often next to the cell nucleus. We added the PFF solution to the hippocampal cells, and after an hour of incubation, we introduced solutions of the activator. After 7 days, we immunostained neuronal cells using a monoclonal antibody against the NeuN protein, which is commonly used in neuronal differentiation studies to assess their functional status. Additionally, we stained the nuclei of all incubated cells with DAPI. […] It is noteworthy that the number of cells in samples with activators was slightly higher (Figure 5), which may indicate neuroprotective properties. […] The main tool for monitoring this process was an antibody against pS129-αsyn. […] The fluorescent microscopy images (Figure 5) show the difference between the amounts of aggregated protein in the control sample and in the samples containing activators at different concentrations.
Cells were isolated from pregnant mouse embryos at E16.0 and plated on precoated with poly-L-lysine wells of 96-well plates (PerkinElmer/Revvity Inc., Waltham, MA, USA) at 25,000 cells/well. The final medium volume was 150 μL/well. Cells were incubated at 37 °C, 5% CO2. […]

C[C@@H](O)[C@H](NC(=O)[C@H](Cc1ccccc1)NC(=O)[C@H](Cc1ccc(O)cc1)NC(=O)CN(CCCCN)C(=O)[C@H](CCCNC(=N)N)NC(=O)[C@H](CCCNC(=N)N)NC(=O)[C@H](CCCNC(=N)N)NC(=O)[C@H](CCC(N)=O)NC(=O)[C@H](CCCNC(=N)N)NC(=O)[C@H](CCCNC(=N)N)NC(=O)[C@H](CCCCN)NC(=O)[C@H](CCCCN)NC(=O)[C@@H](N)CCCNC(=N)N)C(=O)NCC(=O)N[C@@H](CO)C(=O)N[C@@H](CCCCN)C(=O)N[C@@H](CC(=O)O)C(=O)N[C@@H](Cc1c[nH]c2ccccc12)C(=O)N[C@@H](CCCNC(=N)N)C(=O)N[C@@H](CO)C(=O)N[C@@H](Cc1ccc(O)cc1)C(=O)N[C@@H](Cc1ccc(O)cc1)C(=O)N[C@@H](CO)C(=O)O [1f]
α-synuclein remaining after incubation with h20S [1]: less than 40% | effect on hippocampal cells containing α-synuclein aggregates ([2]; 0.5 and 2.5 μM): effectively reduced the number of hippocampal cells containing α-synuclein | reduction of the number of aggregates formed ([2]; very low concentration): 50%
